In US10798946B2, “Method for managing flea beetles of the family chrysomelidae in Brassica crops” (BASF Agrochemical Products B.V., priority 2015, dated 2020):

Tested on: Psylliodes chrysocephala (PSYICH; rape flea beetle)
Assay: Field trial: flea beetle attack on winter oilseed rape, counted as crop plants with eating damage
Format: in vivo
Experimental: A field trial to investigate methods for flea beetle management in Brassica crops was carried out under the regime of Good Experimental Practice (GEP) in Germany, federal state of Niedersachsen. The trial was set up in a 3 time replicated, one factorial randomized block design. The plot size was 45 m^2.
The winter oilseed rape (WOSR) variety used in the trial was the commercial hybrid “Edimax CL®” carrying a tolerance against imidazolinone herbicides. As trap plant Sinapis alba, variety “Ascot” was used.
All WOSR seeds had been commercially treated with the product Aatiram65®, containing the active ingredient Thiram (650 g/I), at a dose rate of […] seeds to protect the seed from emergence diseases.
Only the WOSR seeds for the respective plots had been treated with 160 ml/100 kg seeds with a flowable concentrate containing 8% of Bacillus amyloliquefaciens ssp. plantarum MBI600 as flea beetle repellant.
For the trap plants, no seed treatment was applied.
At the day of seeding, the trap plants were seeded first in the respective plots at a seed rate of 3.6 k/ha using a plot seeder. Afterwards, the plots with WOSR treated with Aatiram65® only were seeded, then WOSR treated on top with Bacillus amyloliquefaciens ssp. plantarum MBI600. Thus, any contamination/mixing of the different seeds and seed treatments was prevented. In both cases, a WOSR seeding rate of 50 seeds per m^2 was targeted.
In order to control any undesired vegetation besides the crop and the trap plants, the commercial broad spectrum herbicide Butisan Top® was applied at a dose rate of 2.0 I/ha pre-emergence of the crop and trap plants.
After the crop was mature enough to overcome flea beetle damage (2-4 true leaf stage (BBCH 12-14)), the plots were sprayed with Pulsar 40 (active ingredient Imazamox) at a dose rate of 0.875 I/ha.
The intensity of the flea beetle attack was evaluated 26 days after seeding (DAS) and 33 DAS by counting the number of crop plants with eating damage. On the first assessment, the crop plants were in 1-2 true leaf stage (BBCH 11-12), at the later assessment, the crop plants had developed to the 1-4 true leaf stage (BBCH 11-14).

Substance: Bacillus amyloliquefaciens ssp. plantarum MBI600 [MBI 600]
- infestation / number of crop plants attacked by flea beetles (in words) (field trial, both days of assessment): did not reduce the infestation
- plants with eating damage (26 DAS) (number of crop plants with eating damage, 26 days after seeding, WOSR Edimax CL, BBCH 11-12, MBI600 seed treatment 160 ml/100 kg seeds of 8% flowable concentrate): 34
- plants with eating damage (33 DAS) (number of crop plants with eating damage, 33 days after seeding, WOSR Edimax CL, BBCH 11-14, MBI600 seed treatment 160 ml/100 kg seeds of 8% flowable concentrate): 34
- plants with eating damage (26 DAS), rel. (relative to treatment 1 (none) = 100, 26 days after seeding): 103
- plants with eating damage (33 DAS), rel. (relative to treatment 1 (none) = 100, 33 days after seeding): 91
